Assay results reported in PubChem BioAssay (NCI).
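Tested at 5 concentrations; 48 h exposure; 96-well plates; endpoints linearly interpolated, else capped at highest concentration. Abbreviation: GI50, concentration required for 50% inhibition of growth. TGI denotes the concentration required for complete inhibition of growth.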

Tests used:
Assay in all cases: growth of human tumour cells (NCI), 48 h
[1] = system: SK-MEL-5 melanoma
[2] = system: NCI-H226 lung
[3] = system: SNB-19 CNS
[4] = system: LOX IMVI melanoma
[5] = system: PC-3 prostate
[6] = system: RPMI-8226 leukemia
[7] = system: SF-295 CNS
[8] = system: SF-268 CNS
[9] = system: BT-549 breast
[10] = system: HT29 colon
[11] = system: MCF7 breast
[12] = system: CAKI-1 renal
[13] = system: U251 CNS
[14] = system: SR leukemia
[15] = system: HCT-15 colon
[16] = system: COLO 205 colon
[17] = system: K-562 leukemia
[18] = system: HOP-92 NSCLC
[19] = system: UACC-257 melanoma
[20] = system: DU-145 prostate
[21] = system: 786-0 renal
[22] = system: A549 NSCLC
[23] = system: SW-620 colon
[24] = system: HCC-2998 colon
[25] = system: UO-31 renal
[26] = system: HS 578T breast
[27] = system: T-47D breast
[28] = system: SK-MEL-28 melanoma
[29] = system: NCI-H23 lung
[30] = system: SN12C renal
[31] = system: OVCAR-4 ovarian
[32] = system: UACC-62 melanoma
[33] = system: MOLT-4 leukemia
[34] = system: TK-10 renal
[35] = system: CCRF-CEM leukemia
[36] = system: IGROV1 ovarian
[37] = system: NCI-H522 lung
[38] = system: M14 melanoma
[39] = system: OVCAR-3 ovarian
[40] = system: NCI-H460 lung
[41] = system: SK-OV-3 ovarian
[42] = system: EKVX NSCLC
[43] = system: ACHN renal
[44] = system: A498 renal
[45] = system: HL-60(TB) leukemia
[46] = system: MDA-MB-435
[47] = system: HOP-62 NSCLC
[48] = system: SNB-75 CNS
[49] = system: OVCAR-5 ovarian
[50] = system: MDA-MB-231 breast
[51] = system: KM12 colon
[52] = system: HCT-116 colon
[53] = system: RXF 393 renal
[54] = system: NCI/ADR-RES ovarian
[55] = system: MALME-3M melanoma
[56] = system: OVCAR-8 ovarian
[57] = system: SF-539 CNS
[58] = system: SK-MEL-2 melanoma

## COc1ccc([C@@H]2[C@@H](O)C(=O)N2c2cc(OC)c(OC)c(OC)c2)cc1F
[1]
  GI50: 0.0351 µM
  TGI: 0.175 µM
[2]
  GI50: 0.0345 µM
  TGI: 0.432 µM
[3]
  GI50: 0.0799 µM
  TGI: > 100 µM
[4]
  GI50: 0.0381 µM
  TGI: > 100 µM
[5]
  GI50: 0.0546 µM
  TGI: > 100 µM
[6]
  GI50: 0.0415 µM
  TGI: > 21.8 µM
[7]
  GI50: 0.0362 µM
  TGI: > 100 µM
[8]
  GI50: 0.0984 µM
  TGI: > 100 µM
[9]
  GI50: 0.0294 µM
  TGI: 0.203 µM
[10]
  GI50: 0.0305 µM
  TGI: 0.11 µM
[11]
  GI50: 0.0352 µM
  TGI: > 100 µM
[12]
  GI50: 0.0463 µM
  TGI: > 61.6 µM
[13]
  GI50: 0.036 µM
  TGI: > 100 µM
[14]
  GI50: 0.0334 µM
  TGI: > 100 µM
[15]
  GI50: 0.0359 µM
  TGI: > 100 µM
[16]
  GI50: 0.0303 µM
  TGI: 0.0933 µM
[17]
  GI50: 0.0381 µM
  TGI: > 100 µM
[18]
  TGI: > 100 µM
[19]
  TGI: > 100 µM
[20]
  GI50: 0.0395 µM
  TGI: > 100 µM
[21]
  GI50: 0.0419 µM
  TGI: > 100 µM
[22]
  GI50: 0.0448 µM
  TGI: > 100 µM
[23]
  GI50: 0.0459 µM
  TGI: > 100 µM
[24]
  GI50: 0.0485 µM
  TGI: > 100 µM
[25]
  GI50: 0.0728 µM
  TGI: > 100 µM
[26]
  GI50: 0.0576 µM
  TGI: > 100 µM
[27]
  GI50: > 55.2 µM
  TGI: > 100 µM
[28]
  GI50: 0.792 µM
  TGI: > 100 µM
[29]
  GI50: 0.0525 µM
  TGI: > 100 µM
[30]
  GI50: 0.0504 µM
  TGI: > 100 µM
[31]
  GI50: 0.686 µM
  TGI: > 100 µM
[32]
  GI50: 0.0487 µM
  TGI: > 100 µM
[33]
  GI50: 0.0458 µM
  TGI: > 100 µM
[34]
  GI50: > 100 µM
  TGI: > 100 µM
[35]
  GI50: 0.0426 µM
  TGI: > 100 µM
[36]
  GI50: 0.0515 µM
  TGI: > 100 µM
[37]
  GI50: 0.0199 µM
  TGI: 0.0537 µM
[38]
  GI50: 0.035 µM
  TGI: > 100 µM
[39]
  GI50: 0.0299 µM
  TGI: 0.114 µM
[40]
  GI50: 0.0344 µM
  TGI: > 100 µM
[41]
  GI50: 0.0559 µM
  TGI: > 84.6 µM
[42]
  GI50: > 100 µM
  TGI: > 100 µM
[43]
  GI50: 0.0568 µM
  TGI: > 100 µM
[44]
  GI50: 22.4 µM
  TGI: > 100 µM
[45]
  GI50: 0.0329 µM
  TGI: 0.207 µM
[46]
  GI50: 0.0231 µM
  TGI: 0.0575 µM
[47]
  GI50: 0.0582 µM
  TGI: > 100 µM
[48]
  GI50: 0.0456 µM
  TGI: > 100 µM
[49]
  GI50: 0.0496 µM
  TGI: > 100 µM
[50]
  GI50: 0.0491 µM
  TGI: > 100 µM
[51]
  GI50: 0.0368 µM
  TGI: > 100 µM
[52]
  GI50: 0.0339 µM
  TGI: > 100 µM
[53]
  GI50: 0.0305 µM
[54]
  GI50: 0.0562 µM
  TGI: > 100 µM
[55]
  GI50: 0.0791 µM
  TGI: > 100 µM
[56]
  GI50: 0.0407 µM
  TGI: > 100 µM

## C[C@]12CC[C@H]3[C@@H](CC=C4C[C@@H](O)CC[C@@]43C)[C@@H]1CC[C@@H]2[C@](C)(O)CCc1cccnc1
[1]
  GI50: 1.01 µM
  TGI: 2.6 µM
[2]
  GI50: 3.7 µM
  TGI: 55 µM
[3]
  GI50: 6.77 µM
  TGI: > 100 µM
[4]
  GI50: 5.63 µM
  TGI: > 100 µM
[5]
  GI50: 3.55 µM
  TGI: > 100 µM
[6]
  GI50: 1.88 µM
  TGI: 49.9 µM
[7]
  GI50: 2.21 µM
  TGI: 9.64 µM
[8]
  GI50: 5.3 µM
  TGI: > 100 µM
[9]
  GI50: 1.69 µM
  TGI: 6.55 µM
[10]
  GI50: 4.6 µM
  TGI: > 100 µM
[11]
  GI50: 2.28 µM
  TGI: > 100 µM
[12]
  GI50: 7.1 µM
  TGI: > 100 µM
[13]
  GI50: 6.5 µM
  TGI: > 100 µM
[14]
  GI50: 2.95 µM
  TGI: > 100 µM
[15]
  GI50: 4.29 µM
  TGI: > 100 µM
[16]
  GI50: 3.16 µM
  TGI: > 100 µM
[17]
  GI50: 2.13 µM
  TGI: > 100 µM
[18]
  GI50: 2.11 µM
  TGI: > 100 µM
[19]
  GI50: 3.03 µM
  TGI: > 100 µM
[20]
  GI50: 3.48 µM
  TGI: > 100 µM
[21]
  GI50: 5.76 µM
  TGI: > 100 µM
[22]
  GI50: 4.44 µM
  TGI: > 100 µM
[23]
  GI50: 5.49 µM
  TGI: > 100 µM
[57]
  GI50: 6.11 µM
  TGI: > 100 µM
[24]
  GI50: 4.99 µM
  TGI: > 100 µM
[25]
  GI50: 1.97 µM
  TGI: > 100 µM
[26]
  GI50: 3.41 µM
  TGI: > 100 µM
[58]
  GI50: 7.44 µM
  TGI: > 100 µM
[27]
  GI50: 2.09 µM
  TGI: > 100 µM
[28]
  GI50: 4.27 µM
  TGI: > 100 µM
[29]
  GI50: 3.05 µM
  TGI: > 100 µM
[30]
  GI50: 47.1 µM
  TGI: > 100 µM
[31]
  GI50: 1.25 µM
  TGI: > 100 µM
[32]
  GI50: 3.19 µM
  TGI: > 100 µM
[33]
  GI50: 2.75 µM
  TGI: 24 µM
[34]
  GI50: 7.58 µM
  TGI: > 100 µM
[35]
  GI50: 4.1 µM
  TGI: > 100 µM
[36]
  GI50: 6.37 µM
  TGI: > 100 µM
[37]
  GI50: 2.09 µM
  TGI: 7.79 µM
[39]
  GI50: 9.14 µM
  TGI: > 100 µM
[40]
  GI50: 3.99 µM
  TGI: > 100 µM
[41]
  GI50: 6.49 µM
  TGI: > 100 µM
[42]
  GI50: 1.59 µM
  TGI: > 100 µM
[43]
  GI50: 4.53 µM
  TGI: > 100 µM
[44]
  GI50: 2.74 µM
  TGI: 62.1 µM
[45]
  GI50: 2.42 µM
  TGI: 7.04 µM
[46]
  GI50: 4.6 µM
  TGI: > 100 µM
[47]
  GI50: 9.27 µM
  TGI: > 100 µM
[48]
  GI50: 2.92 µM
  TGI: > 100 µM
[49]
  GI50: > 100 µM
  TGI: > 100 µM
[50]
  GI50: 6.39 µM
  TGI: > 100 µM
[51]
  GI50: 5.55 µM
  TGI: > 100 µM
[52]
  GI50: 3.42 µM
  TGI: > 100 µM
[53]
  GI50: 1.94 µM
  TGI: 7.78 µM
[54]
  GI50: 3.43 µM
  TGI: > 100 µM
[55]
  GI50: 2.57 µM
  TGI: 8.14 µM
[56]
  GI50: 4.82 µM
  TGI: > 100 µM
